What is called IC50 is the midpoint of a concentration-inhibition curve.

From US20120252773A1, “Method and composition for inhibiting cell proliferation and angiogenesis” (priority 2005, published 2012) come the findings set out here.

Test [1] concerns Human Dermal Microvascular Endothelial Cells (HDMVEC). Nature of the test: Growth inhibition of HDMVEC cells, MTT, 7 days. It is filed as cell-based. Particulars: Endothelial cell, HDMVEC growth, procedures of Example 3, read-out: Inhibitory Effect (IC50 Value). The protocol: To measure the inhibitory activity of (2) on growth of HDMVEC cells (Clonetics, San Diego, Calif.), 2,000 cells were seeded in each well of a 96-well plate in […] of EGM medium (Clonetics) supplemented with 5% fetal bovine serum (Sigma). The plate was incubated at 37° C. in a tissue culture incubator for 24 h, and then various concentrations of (2) dissolved in EGM were added to each well in 5-10 μl aliquots. Four wells were used for each concentration. Medium in each well was renewed with fresh test solution added every other day. After 7 days of culture, the viable cells were measured using reagents from an MTT kit (Promega Corporation, Madison, Wis.), using instructions provided by the supplier. The number of viable cells in treated wells relative to those in control wells gave the percentage of inhibition.
The procedures of Example 3 were carried out to evaluate the inhibitory effect of various compounds of the invention on the growth of HDMVEC cells (Clonetics, San Diego, Calif.).

Test [2] has as its system human endometrial Ishikawa cells. The test is described as follows: Estrogenic activity, alkaline phosphatase, Ishikawa cell-based assay. Conditions: 72 hours. The protocol:
Ishikawa cell based assays were run in parallel on human endometrial Ishikawa cells treated with compound (2) or with 2-methoxyestradiol. 2-Methoxyestradiol is a compound reported in the literature as an anti-angiogenic agent. Cells were cultured in 96-well plates for 48 hours in estrogen- and phenol red-free medium (DMEM/Hamm's F12 medium) containing 5% fetal bovine serum stripped of endogenous estrogens with dextran coated charcoal (Sigma). Compound (2) or other test compounds were then added to the cells and culturing was continued for an additional 72 hours. To the control cells (no (2)), 10^−9 M of […] was added. At the end of 72 hours, alkaline phosphatase activity was measured by adding 5 mM p-nitrophenyl phosphate, 0.24 mM MgCl2, and 1 M diethanolamine (pH 9.8) to the cells while the 96-well plates were kept on ice. The plates were then warmed to room temperature, and the yellow color from the production of p-nitrophenol was measured after 2-3 hours using an ELISA plate reader at a wavelength of 405 nm. The estrogenic activity was defined as the alkaline phosphatase activity stimulated by the test compounds alone as a percentage of that stimulated by estradiol at 10^−9 M. Stimulation by estradiol at 10^−9 M was taken as 100%.

Test [3] has as its system HIF-1α protein in MDA-MB-231 human breast carcinoma cells. Nature of the test: HIF-1α protein expression by immunoblotting, MDA-MB-231 cells. The class given is cell-based. Particulars: MDA-MB-231, same hypoxic/anoxic conditions as for (2). The procedure: Hypoxia experiments were performed in either of two ways. To produce a very low ambient oxygen concentration (effectively anoxia), we used a protocol in which cells were incubated in a 5% CO2-air atmosphere at 37° C. overnight and then placed in aluminum gas-exchange chambers maintained at 37° C. (Laderoute K R et al. Mol Cell Biol 22: 2515-2523, (2002); Laderoute K R et al. Mol Cell Biol 24: 4128-4137, (2004)). The chambers containing the cells were then placed in a 37° C. circulating water bath and the original atmosphere was repeatedly exchanged with 5% CO2-95% N2 using a manifold equipped with a vacuum pump and a gas cylinder. Atmospheric oxygen partial pressure (pO2) values of less than or equal to 0.01% (relative to air at pO2 of about 21%) can be achieved inside the chambers using this system. Following various hypoxic exposures, the chambers were opened an anaerobic glove box (Bactron X, Sheldon Manufacturing Inc., Cornelius, Oreg.; attached to a cylinder containing 5% CO2-95% N2) to prepare cell lysates without significant reoxygenation. All manipulations of hypoxic cells were performed in the anaerobic glove box. Atmospheric oxygen levels in both the chambers and the glove box have been measured and calibrated using a polarographic oxygen electrode (Oxygen Sensors, Inc., Norristown, Pa.). […]
(§1) We used immunoblotting to evaluate the experiments. […] After spinning at 9,000×g for 5 min at 4° C., the protein concentrations of the supernatants were determined by using a bicinchoninic acid assay (Pierce Biotechnology). […] Primary antibody binding was detected and visualized by using the ECL Plus Western Blotting Detection System (Amersham Pharmacia Biotech) according to the supplier's instructions. HIF-1α protein was detected by using an anti-HIF-1α monoclonal antibody (Novus Biologicals, Cat. No. NB100-123; diluted 1:500) and a horseradish peroxidase-conjugated anti-mouse IgG secondary antibody (Santa Cruz Biotechnology, Cat. No. sc-2062; diluted 1:20,000). […]
(A western blot detects proteins with antibodies after separation by electrophoresis.)

In test [4] the test system is HIF-1α protein in PC-3 prostate cancer cells. Nature of the test: HIF-1α protein expression by immunoblotting, PC-3 cells. Conditions: PC-3, same hypoxic/anoxic conditions as for (2). The class given is cell-based, human. The protocol:
Hypoxia experiments were performed in either of two ways. To produce a very low ambient oxygen concentration (effectively anoxia), we used a protocol in which cells were incubated in a 5% CO2-air atmosphere at 37° C. overnight and then placed in aluminum gas-exchange chambers maintained at 37° C. (Laderoute K R et al. Mol Cell Biol 22: 2515-2523, (2002); Laderoute K R et al. Mol Cell Biol 24: 4128-4137, (2004)). The chambers containing the cells were then placed in a 37° C. circulating water bath and the original atmosphere was repeatedly exchanged with 5% CO2-95% N2 using a manifold equipped with a vacuum pump and a gas cylinder. Atmospheric oxygen partial pressure (pO2) values of less than or equal to 0.01% (relative to air at pO2 of about 21%) can be achieved inside the chambers using this system. Following various hypoxic exposures, the chambers were opened an anaerobic glove box (Bactron X, Sheldon Manufacturing Inc., Cornelius, Oreg.; attached to a cylinder containing 5% CO2-95% N2) to prepare cell lysates without significant reoxygenation. All manipulations of hypoxic cells were performed in the anaerobic glove box. Atmospheric oxygen levels in both the chambers and the glove box have been measured and calibrated using a polarographic oxygen electrode (Oxygen Sensors, Inc., Norristown, Pa.). Hypoxia experiments involving a pO2 of 1% were performed by equilibrating the glove box with an atmosphere of 1% O2 5% CO2 […] held at 37° C. with a circulating fan. Cells were incubated inside a humidified space in the glove box and the medium on the cells was gently and continually agitated by using a rotary shaker. For these experiments, we used RAW 264.7 immortalized mouse macrophages as normal control cells, PC-3 prostate cancer cells, and MDA-MB-231 breast cancer cells, all available from ATCC.
as §1, with “experiments. Nuclear lysates were used to detect HIF-1α protein by immunoblotting (Murphy B J et al. Biochem Biophys Res Commun (In Press): 2005). Briefly, cells were placed on ice in air or on Super Ice® cold packs in the anaerobic glove box and the medium was removed.” for “experiments.”

On to `COc1cc(CN2CCCCC2)ccc1OCCC1CCC2C3C(CCC12C)c1ccc(O)cc1C[C@H]3C` (some centres unmarked), for which the IC50 in test [1] stood at 600 nM.
For `COc1cc2c(cc1O)CC[C@@H]1[C@@H]2CC[C@]2(C)[C@@H](O)CC[C@@H]12` [2-methoxyestradiol, 2-Methoxyestradiol, reference compound], the “estrogenic activity (alkaline phosphatase stimulation relative to estradiol at 10^−9 M)” value in test [2] was “large amount of estrogenic activity”. Moreover, the “HIF-1α protein expression, standard HIF-1 inhibitors” value in test [3] and in test [4] was “did not find any effect” in each case.
For the molecule `CCN(CC)Cc1ccc(OCCC2CCC3C4C(CCC23C)c2ccc(O)cc2C[C@H]4C)c(OC)c1` (some centres unmarked), in test [1], the 50% inhibitory concentration (IC50) worked out at 2000 nM.
Regarding `CCN(CC)Cc1ccc(OC/C=C2\CCC3C4C(CCC23C)c2ccc(O)cc2C[C@H]4C)c(OC)c1` (some centres unmarked), the IC50 in test [1] was 1500 nM.
For `CCN(CC)Cc1cc(OC)c(OCCC2CCC3C4C(CCC23C)c2ccc(O)cc2C[C@H]4C)c(OC)c1` (some centres unmarked), the concentration for half-maximal inhibition (IC50) in test [1] came out at 3600 nM.
Still for that read-out and setting: next, `COc1cc(CO)ccc1OCCC1CCC2C3C(CCC12C)c1ccc(O)cc1C[C@H]3C` (some centres unmarked): 5000 nM; `C[C@@H]1Cc2cc(O)ccc2C2CCC3(C)C(CCOc4ccc(C=O)cc4Cl)CCC3C21` (some centres unmarked): 10000 nM.
Turning to `COC(=O)/C=C/c1ccc(OC/C=C2\CCC3C4C(CCC23C)c2ccc(O)cc2C[C@H]4C)cc1` (some centres unmarked), the IC50 in test [1] is 5300 nM.
For the molecule `COc1cc(CN2CCCC2)ccc1OCCC1CCC2C3C(CCC12C)c1ccc(O)cc1C[C@H]3C` (some centres unmarked), the IC50 in test [1] is 1200 nM.
Consider `OCc1ccc(-c2nn(Cc3ccccc3)c3ccccc23)o1` [YC-1, reference compound], for which the “HIF-1α protein expression, standard HIF-1 inhibitors” value in test [3] was “did not find that YC-1, another standard HIF-1 inhibitor, could reproducibly inhibit”; in test [4], “did not find that YC-1, another standard HIF-1 inhibitor, could reproducibly inhibit”.
In the case of `CN(C)CCOC/C=C1\CCC2C3CCc4cc(O)ccc4C3CCC12C` (centres unmarked), the 50% inhibitory concentration (IC50) in test [1] came to 1800 nM.
On to `CCN(CC)Cc1ccccc1OC/C=C1\CCC2C3C(CCC12C)c1ccc(O)cc1C[C@H]3C` (some centres unmarked), for which the half-maximal inhibitory concentration (IC50) in test [1] came out at 4700 nM.
Still for that read-out and setting: then `CCN(CC)Cc1ccc(OCCC2CCC3C4CCc5cc(O)ccc5C4CCC23C)c(OC)c1` (centres unmarked), with 2000 nM; and `C[C@@H]1Cc2cc(O)ccc2C2CCC3(C)C(CCOCCN(C)C)CCC3C21` (some centres unmarked), with 4000 nM.
